Data set [1] concerns Human immunodeficiency virus 1. Briefly: Antiviral activity against wild type HIV-1 IIIB infected in human MT4 cells assessed as protection against virus-induced cytopathic effect incubated for 5 days by MTT assay. Type of data set: functional, organism-based. The note with it: Human immunodeficiency virus 1, IIIB, MT4, 120 h.
Data set [2] concerns Human immunodeficiency virus 1. Briefly: Antiviral activity against HIV-1 RES056 harboring RT K103N/Y181C double mutant infected in human MT4 cells assessed as protection against virus-induced cytopathic effect incubated for 5 days by MTT assay. Format: functional, organism-based. The settings on record: Human immunodeficiency virus 1, RES056, MT4, 120 h.
Data set [3] is described as follows: Cytotoxicity against human MT4 cells assessed as reduction in cell viability measured after 5 days by MTT assay. Type of data set: toxicity, cell-based. The note with it: time 5 day. In general terms: Tetrazolium assays rely on reduction of a dye to a coloured formazan, in cell work by metabolically active cells.
The nature of data set [4]: Selectivity index, ratio of CC50 for cytotoxicity against human MT4 cells to EC50 for antiviral activity against wild type HIV-1 IIIB infected in human MT4 cells. Type of data set: toxicity, cell-based. The note with it: read-out: Ratio CC50/EC50.
Data set [5] in a line: Selectivity index, ratio of CC50 for cytotoxicity against human MT4 cells to EC50 for antiviral activity against HIV-1 RES056 harboring RT K103N/Y181C double mutant infected in human MT4 cells. The settings on record: read-out: Ratio CC50/EC50. Format: toxicity, cell-based.
Data set [6] relates to Human immunodeficiency virus 1. Briefly: Antiviral activity against HIV-1 harboring RT L100I mutant infected in human MT4 cells assessed as protection against virus-induced cytopathic effect incubated for 5 days by MTT assay. Format: functional, organism-based. The settings on record: Human immunodeficiency virus 1, MT4, 120 h. (Damage to the host cells serves as the signal in cytopathic effect assays.)

The subject of data set [7] is Human immunodeficiency virus 1. Briefly: Antiviral activity against HIV-1 harboring RT K103N mutant infected in human MT4 cells assessed as protection against virus-induced cytopathic effect incubated for 5 days by MTT assay. The note with it: Human immunodeficiency virus 1, MT4, 120 h. Type of data set: functional, organism-based.
Data set [8] deals with Human immunodeficiency virus 1. Briefly: Antiviral activity against HIV-1 harboring RT Y181C mutant infected in human MT4 cells assessed as protection against virus-induced cytopathic effect incubated for 5 days by MTT assay. Format: functional, organism-based. The note with it: Human immunodeficiency virus 1, MT4, 120 h.
Data set [9] relates to Human immunodeficiency virus 1. Briefly: Antiviral activity against HIV-1 harboring RT Y188L mutant infected in human MT4 cells assessed as protection against virus-induced cytopathic effect incubated for 5 days by MTT assay. Format: functional, organism-based. The settings on record: Human immunodeficiency virus 1, MT4, 120 h.
Data set [10] deals with Human immunodeficiency virus 1. Briefly: Antiviral activity against HIV-1 harboring RT E138K mutant infected in human MT4 cells assessed as protection against virus-induced cytopathic effect incubated for 5 days by MTT assay. Format: functional, organism-based. The note with it: Human immunodeficiency virus 1, MT4, 120 h.
In data set [11] the test system is Human immunodeficiency virus 1. Briefly: Antiviral activity against HIV-1 harboring RT F227L/V106A double mutant infected in human MT4 cells assessed as protection against virus-induced cytopathic effect incubated for 5 days by MTT assay. Type of data set: functional, organism-based. The note with it: Human immunodeficiency virus 1, MT4, 120 h.
For data set [12], the system named is Human immunodeficiency virus 1. Briefly: Potency index, ratio of Etravirine EC50 to test compound EC50 for antiviral activity against HIV-1 harboring RT K103N mutant infected in human MT4 cells assessed as protection against virus-induced cytopathic effect incubated for 5 days by MTT assay. Type of data set: functional. The settings on record: time 5 day.
Data set [13] deals with Human immunodeficiency virus 1. Briefly: Potency index, ratio of Etravirine EC50 to test compound EC50 for antiviral activity against HIV-1 harboring RT E138K mutant infected in human MT4 cells assessed as protection against virus-induced cytopathic effect incubated for 5 days by MTT assay. Type of data set: functional. The settings on record: time 5 day.
Data set [14] concerns the target T1, Human immunodeficiency virus type 1 reverse transcriptase (Human immunodeficiency virus 1, UniProt Q72547). Briefly: Inhibition of wild type recombinant HIV-1 reverse transcriptase using biotin-labelled dNTPs as substrate assessed as inhibition of biotin-labelled UTP incorporation incubated for 1 hr by ELISA. Background: ELISA stands for enzyme-linked immunosorbent assay.

The target in data set [15] is T1, Human immunodeficiency virus type 1 reverse transcriptase. Briefly: Binding affinity to HIV-1 reverse transcriptase assessed as dissociation constant by SPR analysis.
Data set [16] can be described thus: Aqueous solubility of compound at pH 2 at 0.1 to 10 mg. Type of data set: physicochemical. The note with it: aqueous medium, dose 0.1-10 mg.
Data set [17] in a line: Aqueous solubility of compound at pH 7 at 0.1 to 10 mg. Format: physicochemical. The settings on record: aqueous medium, dose 0.1-10 mg.
A short description of data set [18]: Aqueous solubility of compound at pH 7.4 at 0.1 to 10 mg. Type of data set: physicochemical. The settings on record: aqueous medium, dose 0.1-10 mg.
Data set [19] is described as follows: Metabolic stability in human liver microsomes assessed as half life preincubated for 10 mins followed by NADPH regenerating system addition and measured after 2 hrs by LC-MS/MS analysis. Type of data set: ADME, Microsome. The settings on record: time 130 min.

Structures are written as SMILES. Converted amounts (≈) assume the structure as drawn. Bounds are passed on as bounds.

The source of these data is ChEMBL document CHEMBL5236598, “Lead Optimization and Avoidance of Metabolic-perturbing Motif Developing Novel Diarylpyrimidines as Potent HIV-1 NNRTIs” (J Med Chem, 2022).

A word on the EC50: it is the concentration needed to bring the measured effect to its halfway point. Usually CC50 stands for the concentration giving 50% cytotoxicity. Take `Cc1cc(-c2ccc(F)cc2)cc(C)c1Oc1nc(Nc2ccc(C#N)nc2)nc2ccsc12`: the EC50 was 451 nM in data set [1] and above 6130 nM in [2]. Moreover, the CC50 at 120 h in data set [3] came to 6130 nM. The selectivity ratio in data set [4] was 14; in data set [5], below 1.

Take `Cc1cc(/C=C/C#N)cc(C)c1Oc1nc(Nc2ccc(C#N)nc2)nc2cc[nH]c12`: the EC50 is 1630 nM in data set [1] and above 7940 nM in data set [2]. Moreover, the CC50 at 120 h in data set [3] was found to be 7940 nM. Also, the selectivity ratio in data set [4] was 5; in data set [5], below 1.

In the case of `Cc1cc(-c2ccc(F)cc2)cc(C)c1Oc1nc(Nc2ccc(C#N)nc2)nc2sccc12`, the EC50 in [1] was 802 nM; in data set [2], above 2230 nM. For the same compound, the CC50 at 120 h in data set [3] was determined as 2230 nM. Moreover, the values for the selectivity ratio in [4] and in data set [5] were 3 and below 1, respectively.

Turning to `Cc1cc(/C=C/C#N)cc(C)c1Oc1nc(Nc2ccc(C#N)c(F)c2)nc2cc[nH]c12`, the EC50 in data set [1] worked out at 4470 nM; in data set [2], 45800 nM. Further, the CC50 at 120 h in data set [3] is 188000 nM. For the same compound, the selectivity ratio in data set [4] came out at 42; in data set [5], 4.1.

As usually defined, the IC50 is the midpoint of a concentration-inhibition curve. `N#C/C=C/c1cc(F)c(Oc2nc(Nc3ccc(C#N)nc3)nc3ccsc23)c(F)c1`: the EC50 in [1] was 1.79 nM; in data set [2], 2200 nM; in data set [6], 19.2 nM; in data set [7], 2.55 nM; in data set [8], 66.5 nM; in [9], above 47500 nM. The EC50 in data set [10] was 7.46 nM; in data set [11] it was 1450 nM. For the same compound, in data set [3], the CC50 at 120 h was determined as 47500 nM. Moreover, the results for the selectivity ratio in [4] and in [5] were 26500 and 22, respectively. Further, the “Ratio EC50” value in data set [12] and in data set [13] was 2 throughout. In data set [14], the IC50 is 40 nM.

As for `N#C/C=C/c1cc(F)c(Oc2nc(Nc3ccc(C#N)c(F)c3)nc3c2COC3)c(F)c1`, the EC50 turned out to be 1.67 nM in data set [1]; 314 nM in [2]; 6.9 nM in data set [6]; 2.41 nM in [7]; 13.9 nM in data set [8]; 214 nM in data set [9]. The EC50 in [10] amounted to 3.45 nM; in [11], 384 nM. Moreover, the CC50 at 120 h in [3] was 243000 nM. The selectivity ratio in [4] was 145000; in data set [5] it was 773. Besides, the IC50 in data set [14] stood at 30 nM.

Regarding `Cc1cc(/C=C/C#N)cc(C)c1Oc1nc(Nc2ccc(C#N)nc2)nc2c1COC2`, the EC50 in [1] was determined as 2.4 nM; in [2], 71.7 nM; in data set [6], 6.64 nM; in [7] it was 1.34 nM; in data set [8], 9.75 nM; in data set [9], 44.6 nM. Moreover, the EC50 in [10] was determined as 3.23 nM; in [11], 110 nM. In addition, the CC50 at 120 h in data set [3] was found to be 213000 nM. Further, the selectivity ratio in [4] was 88900; in data set [5], 2980. Besides, the IC50 in data set [14] was determined as 40 nM.

For `Cc1cc(-c2ccc(F)cc2)cc(C)c1Oc1nc(Nc2ccc(C#N)c(F)c2)nc2sccc12`, the EC50 in [1] came out at 583 nM; in data set [2] it was 11100 nM. Moreover, the CC50 at 120 h in data set [3] is 28900 nM. The results for the selectivity ratio in [4] and in data set [5] were 50 and 2.6, respectively.

In general, Kd refers to the concentration at which binding is half-saturated. As a reminder, the solubility is how much of the substance goes into solution per volume. Read a low solubility as little dissolved substance. As to `Cc1cc(/C=C/C#N)cc(C)c1Oc1nc(Nc2ccc(C#N)c(F)c2)nc2c1COC2`, the EC50 in data set [1] amounted to 2.22 nM; in [2], 53.3 nM; in data set [6] it was 3.04 nM; in data set [7], 2.87 nM; in [8], 10.2 nM; in [9] it was 13.2 nM. For the same compound, the EC50 in data set [10] worked out at 9.77 nM; in data set [11], 19.8 nM. Moreover, the CC50 at 120 h in [3] is 45600 nM. Moreover, the selectivity ratio was found to be 20600 in data set [4] and 857 in data set [5]. Further, the Kd in [15] came out at 2500 nM. Besides, in [14], the IC50 amounted to 50 nM. The values for the solubility in [16], in data set [17] and in data set [18] were 23.1 µg/mL (≈ 54 µM), 12.3 µg/mL (≈ 28.8 µM) and 5.7 µg/mL (≈ 13.3 µM), respectively.

In the case of `N#C/C=C/c1cc(F)c(Oc2nc(Nc3ccc(C#N)c(F)c3)nc3cc[nH]c23)c(F)c1`, the EC50 in data set [1] was 38 nM; in data set [2], 630 nM. In addition, the CC50 at 120 h in data set [3] was determined as 10200 nM. In addition, the values for the selectivity ratio in data set [4] and in [5] were 268 and 16, respectively.

As for `N#C/C=C/c1cc(F)c(Oc2nc(Nc3ccc(C#N)nc3)nc3c2COC3)c(F)c1`, the EC50 in [1] amounted to 5.77 nM; in [2] it was 12200 nM. In addition, in [3], the CC50 at 120 h worked out at 243000 nM. Further, the selectivity ratio in [4] was 42100; in [5] it was 20.

Turning to `N#C/C=C/c1cc(F)c(Oc2nc(Nc3ccc(C#N)nc3)nc3cc[nH]c23)c(F)c1`, the values for the EC50 in data set [1] and in data set [2] were 147 nM and above 29000 nM, respectively. Also, the CC50 at 120 h in [3] was determined as 29000 nM. Moreover, the selectivity ratio was 197 in data set [4] and below 1 in data set [5].

As to `Cc1cc(C#N)cc(C)c1Oc1nc(Nc2ccc(C#N)cc2)nc(N)c1Br` [ETRAVIRINE], the EC50 came out at 3.3 nM in data set [1]; 76.2 nM in data set [2]; 4.3 nM in data set [7]; 25.1 nM in [9]; 18.1 nM in [10]; 25.4 nM in data set [11]. Further, the CC50 at 120 h in data set [3] was above 4610 nM.

As usually defined, the half-life is how long it takes for the measured level to halve. For the compound `C[C@]12CC[C@H]3[C@@H](CCC4=CC(=O)CC[C@@]43C)[C@@H]1CC[C@@H]2O` [TESTOSTERONE], the half-life in [19] is 11.1 min.
